Results on six compounds are retold here after article PMC12655438, “Inhibitory Activity of Calcium and Sodium Ion Channels of Neurotoxic Protoplaythoa variabilis V-Shape Helical Peptide Analogs and Their Neuroprotective Effect In Vitro” (Pharmaceuticals, 2025).

Read-outs that look alike come from different tables or passages of the source. Where a SMILES comes first, the peptide text is derived from it.

Series [1] relates to sodium inward current (INa) in bovine chromaffin cells. The series is described as follows: Sodium current (INa) block, whole-cell patch clamp in bovine chromaffin cells. The series is classed as cell-based. As to conditions: for Block of INa: 10 ms pulses to 0 mV, holding -80 mV, 0 mM external Ca2+, pH 7.4, 22–24 °C, end of 3-min superfusion (legend: 1 min), mean ± SEM, n = 3–6 cells; for IC50: peak INa, fit to an exponential function, 1, 3, 10 μM, read-out: IC50 for sodium current blockade. Background: In patch-clamp work, channel activity is measured electrically.

Series [2] relates to voltage-dependent potassium current (IKv) in bovine chromaffin cells. The series is described as follows: Voltage-dependent potassium current (IKv) block, whole-cell patch clamp in bovine chromaffin cells. The series is classed as cell-based. The conditions noted are these: 10 µM; 400 ms pulses to 100 mV, holding -80 mV, 2 mM Ca2+, 200 μM Cd2+, 22–24 °C; mean ± SEM, n = 3–4 cells.

The subject of series [3] is voltage-gated sodium channels in vertebrates. As to conditions: ref [14]; cited from earlier work. The source says:
Previously, we investigated the synthetic versions of the linear PpVα and the folded PpVα analog, which contains an internal single disulfide bond, and the linear, chimeric PpVα.

The test system of series [4] is voltage-dependent Ca^2+ channel (ICa) in bovine chromaffin cells. It is filed as cell-based. As to conditions: for Block of ICa: 50 ms pulses to 0 mV, holding -80 mV, 10 mM Ca2+, 5 μM TTX, pH 7.4, 22–24 °C, end of 1-min superfusion; for IC50: peak ICa, fit to an exponential function, 1, 3, 10 μM, read-out: IC50 for calcium current blockade.
Series [5] deals with human neuroblastoma (SH-SY5Y) cells. As to conditions: for Cell viability: 24 h.
Series [6] has as its system intracellular calcium level ([Ca^2+]c) in bovine chromaffin cells. Kind of series: Intracellular calcium level with Fluo-4-AM in K+-stimulated bovine chromaffin cells. The series is classed as cell-based. As to conditions: for Reduction of [Ca2+]c: Fluo-4, K+ stimulus (text 35 µM, legend 35 mM), room temperature, fluorescence 488/522 nm, mean ± SEM; for Reduction of fluorescence compared with baseline: p ≤ 0.001; for IC50: K+-stimulated, fit to an exponential function, 1, 3, 10 μM, read-out: IC50 for depression of the intracellular calcium increment.

The conditions of series [7]: TFA salt, lyophilized powder, ref China Peptides (custom peptide service), cited from earlier work.
Series [8] deals with human neuroblastoma (SH-SY5Y) cells.
A further series concerns zebrafish larvae. As to conditions: ref [14],[53], cited from earlier work.
The test system of a further series is Cav channels (Cav2.2). The conditions noted are these: cited from earlier work.
The mark [9] stands for this setting: 1 μM, mean ± SEM, n = 3–5 cells (legend: 5–6).
Where [10] appears, read: 3 μM, mean ± SEM of 5–6 experiments.
Where [11] appears, read: 10 μM, mean ± SEM of 5–6 experiments.

As to `CC[C@H](C)[C@H](NC(=O)[C@H](CC(C)C)NC(=O)[C@H](CCC(=O)O)NC(=O)CN)C(=O)N[C@@H](CCCCN)C(=O)N[C@@H](CCSC)C(=O)N[C@@H](CCCCN)C(=O)N[C@@H](Cc1ccc(O)cc1)C(=O)N[C@@H](Cc1c[nH]c2ccccc12)C(=O)N[C@H](C(=O)N[C@@H](CC(C)C)C(=O)N[C@@H](CC(N)=O)C(=O)N[C@H](C(=O)N1CCC[C@H]1C(=O)N[C@@H](C)C(=O)N[C@@H](CO)C(=O)N[C@H](C(=O)N[C@@H](CS)C(=O)N[C@@H](CC(=O)O)C(=O)N[C@@H](CCC(=O)O)C(=O)N[C@@H](Cc1ccc(O)cc1)C(=O)N[C@@H](CS)C(=O)N[C@@H](Cc1c[nH]c2ccccc12)C(=O)N[C@@H](CO)C(=O)N[C@@H](CCC(N)=O)C(=O)N[C@@H](CCSC)C(=O)N[C@@H](CC(C)C)C(=O)N[C@@H](CC(C)C)C(=O)N[C@@H](Cc1ccc(O)cc1)C(=O)N[C@@H](CCCCN)C(=O)N[C@@H](CCCCN)C(=O)N[C@@H](CO)C(N)=O)C(C)C)C(C)C)[C@@H](C)CC` [CHI] (H-GELIKMKYWILNVPASVCDEYCWSQMLLYKKS-NH2; N-terminus assumed), the “Block of INa” value in series [1] (1 μM) amounted to 14.79 ± 2.16%; in [1] (3 μM), 22.05 ± 3.61%; in series [1] (10 μM), 75.57 ± 5.05%. Also, the “Effect on INa at low concentrations” value in series [1] (1 and 3 μM) is recorded as “no effect on INa”. In addition, the IC50 (commonly the concentration that inhibits the measured activity by half) in [1] was found to be 7.65 µM; in series [4], 8.88 µM; in series [6], 6.89 µM. The “Block of IKv” value in series [2] worked out at 1.21 ± 2.42%. In addition, in [3], the “Block of voltage-gated sodium channels in vertebrates” value was “effective blockers of voltage-gated sodium channels in vertebrates”. Besides, the “Block of ICa” value in [4] (setting [9]) worked out at 10.74 ± 0.61%; in series [4] (setting [10]) it was 14.28 ± 2.08%; in series [4] (setting [11]) it was 63.43 ± 4.76%. The figures for the Cell viability in [5] (1 μM), in series [5] (3 μM) and in series [5] (10 μM) were 71%, 73% and 67%, respectively. Also, the results for the “Reduction of [Ca2+]c” value in series [6] (1 μM), in series [6] (3 μM) and in series [6] (10 μM) were 33.2 ± 9.4%, 36.0 ± 8.2% and 65.0 ± 4.7%, respectively. Also, the “Reduction of fluorescence compared with baseline” value in [6] (10 μM) was “more than 60%”. For the same compound, the Solubility – broadly, how much of the substance goes into solution per volume – in series [7] (in 20%ACN/80%H2O) was 1000 µg/mL.
`CC[C@H](C)[C@H](NC(=O)[C@H](Cc1c[nH]c2ccccc12)NC(=O)[C@H](Cc1ccc(O)cc1)NC(=O)[C@@H](N)CCCCN)C(=O)N[C@@H](CC(C)C)C(=O)N[C@@H](CC(N)=O)C(=O)N[C@H](C(=O)N1CCC[C@H]1C(=O)N[C@@H](C)C(=O)N[C@@H](CO)C(=O)N[C@H](C(=O)N[C@@H](CS)C(=O)N[C@@H](CC(=O)O)C(=O)N[C@@H](CCC(=O)O)C(=O)N[C@@H](Cc1ccc(O)cc1)C(=O)N[C@@H](CS)C(=O)N[C@@H](Cc1c[nH]c2ccccc12)C(=O)N[C@@H](CO)C(=O)N[C@@H](CCC(N)=O)C(=O)N[C@@H](CCSC)C(=O)N[C@@H](CC(C)C)C(=O)N[C@@H](CC(C)C)C(=O)N[C@@H](Cc1ccc(O)cc1)C(=O)N[C@@H](CCCCN)C(=O)N[C@@H](CCCCN)C(=O)N[C@@H](CO)C(N)=O)C(C)C)C(C)C` [PPA] (H-KYWILNVPASVCDEYCWSQMLLYKKS-NH2; N-terminus assumed): the “Block of INa” value stood at 14.80 ± 5.05% in series [1] (1 μM), 28.92 ± 4.60% in [1] (3 μM) and 54.32 ± 8.29% in series [1] (10 μM). For the same compound, the IC50 in [1] was found to be 9.08 µM; in [4], 8.77 µM; in series [6], 6.95 µM. Further, in series [2], the “Block of IKv” value stood at 14.04 ± 5.99%. The “Neuroprotection against veratridine, in words” value in series [8] (veratridine, 24 h) was “lower neuroprotection than SSB and CHI”. In the series with zebrafish larvae (1–30 µM, three different times), the “Survival rate of zebrafish larvae” value was “decrease in survival rate to a minimum, for example, within 20 min at 3 µM peptide”. Moreover, the “LD50 in zebrafish larvae” value in the series on zebrafish larvae (concentration causing 50% of death) is reported as 21.23 µM. For the same compound, the “Block of ICa” value is 19.92 ± 5.32% in [4] (setting [9]), 38.50 ± 7.14% in [4] (setting [10]) and 52.86 ± 8.69% in series [4] (setting [11]). Besides, the figures for the Cell viability in [5] (1 μM), in [5] (3 μM) and in series [5] (10 μM) were 77%, 71% and 60%, respectively. Besides, the “Reduction of [Ca2+]c” value in series [6] (1 μM) is 38.5 ± 7.1%; in series [6] (3 μM) it was 38.7 ± 10.8%; in series [6] (10 μM) it was 60.9 ± 6.1%. In series [6] (10 μM), the “Reduction of fluorescence compared with baseline” value is listed as “more than 60%”. The Solubility in series [7] (in 30%ACN/70%H2O) was 1000 µg/mL.
In the case of `COc1ccc2[nH]cc(CCNC(C)=O)c2c1` [melatonin, reference compound], the “Reversion of cell damage” value in series [5] (O/R (3 μM/4 μM) 24 h) is “approximately 80%”. For the same compound, in series [5] (positive control against O/R, mean), the “Cell viability with MLT” value was 82%.
Turning to `NC1=N[C@H](O)[C@H]2[C@H]3O[C@]4(O)O[C@@H]([C@@H](O)[C@@]2(N1)[C@@H]4O)[C@]3(O)CO` [tetrodotoxin], in [8], the “Cell viability with TTX” value is 85.41% and the “Neuroprotection against veratridine, in words” value is “almost wholly reverted the cellular damage”.
For the compound `COc1ccc(C(=O)O[C@H]2CC[C@@]3(C)[C@@H]4CC[C@H]5[C@]6(O)C[C@H](O)[C@@]7(O)[C@@H](CN8C[C@@H](C)CC[C@H]8[C@@]7(C)O)[C@]6(O)C[C@@]53O[C@]24O)cc1OC` [veratridine], the “Cell viability, inducer alone (VTD)” value in [8] (veratridine 24 h, no peptide, untreated control 100, mean) came to 49.21%. For the same compound, the “Mortality rate compared with untreated cells” value in [8] (veratridine, 24 h) turned out to be 50%.
For the compound ziconotide, the Cav channel inhibition entry in the series on Cav channels (Cav2.2) is “highly selective and potent inhibitor of Cav channels”.
